From patent US20200361895A1, “NOVEL SULFONAMIDE CARBOXAMIDE COMPOUNDS” (Inflazome Limited, priority 2017, published 2020)
Counter-ions that a name gives are not always drawn.

Columns and labels:
[1] = PK protocol, intravenous administration; format: in vivo, male Sprague Dawley rats; conditions: male, Sprague Dawley, plasma, dose 1 mg/kg, rat; for Vd: read-out: Vdss
Description: (§1) Pharmacokinetic parameters were determined in male Sprague Dawley rats (Charles River, UK, 250-350 g; or Vital River Laboratory Animal Technology Co Ltd, Beijing, China, 7-9 weeks old). Animals were individually housed during the study and maintained under a 12 h light/dark cycle. Animals had free access to food and water.
(§2) For intravenous administration, compounds were formulated as a solution in water or DMSO:PBS [10:90] in 2 mL/kg dosing volume and administered via tail vein. For oral administration, compounds were formulated as a solution in DMSO:water [10:90] in 5 mL/kg dosing volume and administered orally.
(§3) Serial blood samples (about 120-300 μL) were taken from each animal at each of 8 time-points post dose (0.083, 0.25, 0.5, 1, 2, 4, 8 and 24 h) or at each of 12 time-points post dose (0.03, 0.1, 0.17, 0.25, 0.5, 1, 2, 4, 6, 8, 12 and 24 h) or pre-dose and at each of 9 time-points post dose (0.25, 0.5, 1, 2, 4, 6, 8, 12 and 24 h). Samples were held on ice for no longer than 30 minutes before centrifugation (10,000 rpm (8,385 g) for 3 minutes; or 5,696 rpm (3,000 g) for 15 minutes) for plasma generation. Plasma was frozen on dry ice prior to bioanalysis. PK parameters were generated from LC-MS/MS data using Dotmatics or Phoenix WinNonlin 6.3 software.

[2] = PK protocol, oral administration; format: in vivo; conditions: rat, male Sprague Dawley rats, 3 mg/kg, solution in DMSO:water [10:90], plasma
Description: as §1, §2, §3

[3] = biological target: T1, NLRP3 (Homo sapiens, UniProt Q96P20); experiment: THP-1 cells pyroptosis assay (LPS + nigericin, resazurin readout; THP IC50); format: cell-based; design: Seed THP-1 cells (25,000 cells/well) containing 1.0 μg/ml LPS in 40 μl of RPMI medium; host or cells: THP-1 cells
How it was run: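 Human THP-1 cells, 25,000/well in serum-free RPMI with 1 μg/ml LPS, treated 3 hrs at 37° C with compound (8-point half-log, 10 μM top, 0.1% DMSO), then 5 μM nigericin 1 hr. Viability by 100 μM resazurin fluorescence after 1-2 hrs; IC50 by 4-parameter fit.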

[4] = biological target: T1, NLRP3; experiment: Human whole blood IL1β release assay (LPS + nigericin, AlphaLisa IL-1β; HWB IC50); format: cell-based; design: Human whole blood in Li-heparin tubes was obtained from healthy donors from a volunteer donor panel; from tissue; host or cells: human whole blood from healthy donors; conditions: IL-1β release
How it was run: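 Donor Li-heparin whole blood primed with 1 μg/ml LPS, given compound (8-point half-log series, 10 μM top; DMSO 0.1% final) for 3 h at 37 °C, then nigericin 10 μM final for 1 h. Supernatant IL-1β measured by AlphaLisa; IC50 from 4-parameter variable-slope fit.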

T1 sequence (Q96P20 whole entry): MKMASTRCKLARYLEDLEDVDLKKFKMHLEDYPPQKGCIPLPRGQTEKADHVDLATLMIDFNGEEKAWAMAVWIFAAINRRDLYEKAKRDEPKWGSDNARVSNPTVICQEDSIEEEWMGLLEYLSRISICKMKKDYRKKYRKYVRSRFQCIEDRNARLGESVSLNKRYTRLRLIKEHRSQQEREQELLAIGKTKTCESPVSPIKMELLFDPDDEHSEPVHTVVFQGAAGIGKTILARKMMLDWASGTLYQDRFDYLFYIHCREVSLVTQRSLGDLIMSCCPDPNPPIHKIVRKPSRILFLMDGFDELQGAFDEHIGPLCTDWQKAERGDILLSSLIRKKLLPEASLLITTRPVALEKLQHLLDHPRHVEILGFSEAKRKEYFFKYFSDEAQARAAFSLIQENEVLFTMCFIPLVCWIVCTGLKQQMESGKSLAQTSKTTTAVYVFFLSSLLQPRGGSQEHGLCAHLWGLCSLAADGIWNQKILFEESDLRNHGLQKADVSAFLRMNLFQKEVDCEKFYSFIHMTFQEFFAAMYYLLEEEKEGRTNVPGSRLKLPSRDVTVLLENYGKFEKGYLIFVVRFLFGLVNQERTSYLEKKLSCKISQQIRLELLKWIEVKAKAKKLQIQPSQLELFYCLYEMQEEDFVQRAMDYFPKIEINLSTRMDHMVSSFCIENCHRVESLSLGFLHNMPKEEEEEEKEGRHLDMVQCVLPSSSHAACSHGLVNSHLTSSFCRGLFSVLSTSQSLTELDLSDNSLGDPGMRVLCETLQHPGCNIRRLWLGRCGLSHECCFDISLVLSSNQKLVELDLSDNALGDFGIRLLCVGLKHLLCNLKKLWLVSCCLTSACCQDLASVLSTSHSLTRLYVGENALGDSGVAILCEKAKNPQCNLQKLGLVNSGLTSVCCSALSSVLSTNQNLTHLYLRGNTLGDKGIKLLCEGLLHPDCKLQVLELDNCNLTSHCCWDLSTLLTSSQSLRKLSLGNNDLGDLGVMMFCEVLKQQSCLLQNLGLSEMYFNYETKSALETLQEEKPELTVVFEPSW

SMILES | AUC [1] [ng·h/mL] | clearance [1] [mL/min/kg] | half-life [1] [h] | Vd [1] [L/kg] | AUC [2] [ng·h/mL] | CL/F [2] [mL/min/kg] | Cmax [2] [ng/mL] | Tmax [2] [h] | half-life [2] [h] | bioavailability [2] [%] | IC50 [3] [nM] | IC50 [4] [nM]
COc1cc(-c2ccc3c(c2NC(=O)NS(=O)(=O)c2ccn(C(C)(C)CN(C)C)n2)CCC3)ccn1 [Example 69, 1-(1-(Dimethylamino)-2-methylpropan-2-yl)-N-((5-(2-methoxypyridin-4-yl)-2,3-dihydro-1H-inden-4-yl)carbamoyl)-1H-pyrazole-3-sulfonamide] | 896 | 19 | 5.8 | 0.78 | 504 | 112 | 113 | 0.5 | 5 | 19 | ≤ 500 | ≤ 500
COc1cc(-c2ccc3c(c2NC(=O)NS(=O)(=O)c2ccn(C4CC4)n2)CCC3)ccn1 [Example 221, 1-Cyclopropyl-N-((5-(2-methoxypyridin-4-yl)-2,3-dihydro-1H-inden-4-yl)carbamoyl)-1H-pyrazole-3-sulfonamide, sodium salt] | 65400 | 0.39 | 15 | 0.36 | 136000 | 0.48 | 7220 | 0.75 | 12 | 83 | ≤ 500 | ≤ 500
COc1cc(-c2ccc3c(c2NC(=O)NS(=O)(=O)c2ccn(C(C)C)n2)CCO3)ccn1 [Example 224, 1-Isopropyl-N-((5-(2-methoxypyridin-4-yl)-2,3-dihydrobenzofuran-4-yl)carbamoyl)-1H-pyrazole-3-sulfonamide, sodium salt] | 6480 | 2.6 | 3.2 | 0.47 |  |  |  |  |  |  | ≤ 500 | ≤ 500
CC(C)n1cc(S(=O)(=O)NC(=O)Nc2c(-c3ccnc(C#N)c3)ccc3c2CCC3)nn1 [Example 230, N-((5-(2-Cyanopyridin-4-yl)-2,3-dihydro-1H-inden-4-yl)carbamoyl)-1-isopropyl-1H-1,2,3-triazole-4-sulfonamide, sodium salt] | 1950 | 8.5 | 1.3 | 0.24 |  |  |  |  |  |  | ≤ 500 | ≤ 500
COc1cc(-c2ccc3c(c2NC(=O)NS(=O)(=O)c2ccc(CN(C)C)cc2)CCC3)ccn1 [Example 251, 4-((Dimethylamino)methyl)-N-((5-(2-methoxypyridin-4-yl)-2,3-dihydro-1H-inden-4-yl)carbamoyl)benzenesulfonamide, sodium salt] | 1260 | 13.3 | 2.9 | 2.12 |  |  |  |  |  |  | ≤ 500 | ≤ 500
